Test results published in US20070185138A1, “Imidazolopyrimidines used as fungicidal active ingredients” (priority 2004, published 2007).

How the values were obtained:
[1] = logP determination by HPLC (EEC Directive 79/831 Annex V. A8); format: physicochemical; details: HPLC gradient method, acetonitrile/0.1% aqueous phosphoric acid
Procedure: The logP values were determined in accordance with EEC Directive 79/831 Annex V. A8 by HPLC (gradient method, acetonitrile/0.1% aqueous phosphoric acid).

[2] = system: Botrytis cinerea; test: Botrytis test (cucumber)/protective; format: in vivo; details: young cucumber plants, protective spray, application rate 750 g/ha, evaluation 5-6 days after inoculation
Procedure: • Botrytis test (cucumber)/protective • Solvent: 49 parts by weight of N,N-dimethylformamide • Emulsifier: 1 part by weight of alkylaryl polyglycol ether
To produce a suitable preparation of active compound, 1 part by weight of active compound is mixed with the stated amounts of solvent and emulsifier, and the concentrate is diluted with water to the desired concentration.
To test for protective activity, young cucumber plants are sprayed with the preparation of active compound at the stated application rate. One day aft er the treatment, the plants are inoculated with a spore suspension of Botrytis cinerea and then remain at 100% relative hunmdity and 20° C. for 48 h. The plants then remain at 96% relative atmospheric-humidity and a temperature of 10° C.
Evaluation is carried out 5-6 days after the inoculation. 0% means an efficacy which corresponds to that of the control, whereas an efficacy of 100% means that no infection is observed.

Molecule C[Si](C)(C)CNc1nc2nccn2c(Cl)c1-c1c(F)cc(F)cc1F [Example 1, 5-chloro-6-(2,4,6-trifluorophenyl-)-7-trimethylsilylmethylaminoimidazo[1,2-a]pyrimidine] has a logP [1] of 2.09.
With CC(Nc1nc2nccn2c(Cl)c1-c1c(F)cc(F)cc1F)[Si](C)(C)C (stereo not drawn) [Example 2, 5-chloro-6-(2,4,6-trifloropheny)-7-(1-trimethylsilylethylamino)imidazo[1,2-a]pyrimidine] the logP [1] was 2.18 and the efficacy [2] was greater than 80%.
